{"source": "patent US20240382564A1", "about": "“Methods and Compositions for Treating Muscular Dystrophy and Memory Impairment” (Allysta Pharmaceuticals, Inc., priority 2023, published 2024)", "key": {"D2.mdx mice [1]": {"tested_on": "D2.mdx mice", "test": "Hippocampal high-resolution respirometry", "format": "in vivo, mouse", "settings": "15 mg/kg daily; 15 μM ADP", "procedure": "Male D2.mdx mice originated from a colony maintained at York University (Toronto, Canada) and sourced from Jackson Laboratories (Stock Number 013141, Bar Harbor, United States). Mice were treated daily from days 7 to 28 of age with ALY688 at 15 mg/kg b.w. (D2.mdx-ALY688) or saline control (D2.mdx-VEH). This age was chosen given it captures an early stage of disease progression in cardiac and skeletal muscle. Mice were sacrificed 20-24 hr after the last dose. Breeding of wildtype mice was unsuccessful. Instead, three-week-old wildtype DBA/2J WT mice (D2A) were obtained from Jackson Laboratories (Stock number 000671, Bar Harbor, United States) and allowed to acclimatize for one week before sacrifice. Mice were housed in standard 12:12-hr light:dark cycles and were allowed access to standard rodent chow and water ad libitum. 4 days prior to sacrifice, all groups underwent novel object recognition acclimatization and testing as described below. Mice were anesthetized under 5% isoflurane vaporized in medical air (21% oxygen) at a flow rate of 2 L/min and then maintained at 2-3% prior to euthanasia by exsanguination. […]\nMitochondrial oxygen consumption (respiration) was measured using the in situ brain permeabilization. […] Polarographic oxygen measurements were acquired in 2 s intervals with the rate of respiration derived from 40 data points and expressed as pmol/s/mg wet weight. […]"}, "D2.mdx mice [2]": {"tested_on": "D2.mdx mice", "test": "Hippocampal western blotting", "format": "in vivo, mouse", "settings": "hippocampus", "procedure": "Male D2.mdx mice originated from a colony maintained at York University (Toronto, Canada) and sourced from Jackson Laboratories (Stock Number 013141, Bar Harbor, United States). Mice were treated daily from days 7 to 28 of age with ALY688 at 15 mg/kg b.w. (D2.mdx-ALY688) or saline control (D2.mdx-VEH). This age was chosen given it captures an early stage of disease progression in cardiac and skeletal muscle. Mice were sacrificed 20-24 hr after the last dose. Breeding of wildtype mice was unsuccessful. Instead, three-week-old wildtype DBA/2J WT mice (D2A) were obtained from Jackson Laboratories (Stock number 000671, Bar Harbor, United States) and allowed to acclimatize for one week before sacrifice. Mice were housed in standard 12:12-hr light:dark cycles and were allowed access to standard rodent chow and water ad libitum. 4 days prior to sacrifice, all groups underwent novel object recognition acclimatization and testing as described below. Mice were anesthetized under 5% isoflurane vaporized in medical air (21% oxygen) at a flow rate of 2 L/min and then maintained at 2-3% prior to euthanasia by exsanguination. Muscles were removed and used for another investigation (under review at the time of this submission). The right and left hippocampus were then quickly dissected from the brain with a portion placed immediately into ice-cold BIOPS, containing (in mM): 50 MES Hydrate, 7.23 K2EGTA, 2.77 CaK2EGTA, 20 imidazole, 0.5 dithiothreitol, 20 taurine, 5.77 ATP, 15 PCr, and 6.56 MgCl2·6H2O (pH 7.1) or flash-frozen in liquid nitrogen and stored at −80° C. for RNA isolation and western blotting. All experiments and procedures were approved by the Animal Care Committee at York University (AUP Approval Number 2016-18) in accordance with the Canadian Council on Animal Care.\nHippocampus tissue (collected from the same mice utilized in high-resolution respirometry experiments) was homogenized in cold lysis buffer containing (in mM; 20 Tris/HCl, 150 NaCl, 1 EDTA, 1 EGTA, 1% Triton X-100, 2.5 Na4O7P2, 1 Na3VO4, pH 7.0) supplemented with protease and phosphatase inhibitors (Sigma) according to the protocol established in Hughes MC et al. “Early myopathy in Duchenne muscular dystrophy is associated with elevated mitochondrial H2O2 emission during impaired oxidative phosphorylation.” Journal of Cachexia, Sarcopenia and Muscle. 2019; 10:643-61. […] For detection of total AMPK, p-AMPK, p-ULK1, p62, and LC3BII/I, proteins were transferred to a 0.2 μm low fluorescence polyvinylidene difluoride membrane using a Bio-Rad Trans Blot Turbo. […] The same washing protocol was repeated and then membranes were detected using infrared imaging (LI-COR CLx; LI-COR, Lincoln, NE, USA) and quantified by densitometry (ImageJ, http://imagej.nih.gov/ij/). […]"}}, "note": "“Also recorded” adds a separate entry of the source. Where no end group is shown, it is not given here. [ ]: non-standard residue; d: D form. Nva = CCC[C@H](N)C(=O)O"}
{"substance": "[dN]IP[Nva]LY[dS]FA[dS]-NH2 [ALY688]", "values": [{"measurement": "hippocampal pyruvate-supported respiration stimulated by ADP", "setting": "D2.mdx mice [1]", "result": "completely preserved; also recorded: complete restoration"}, {"measurement": "degree of AMPK activation (p-AMPK or p-AMPK/AMPK)", "setting": "D2.mdx mice [2]", "result": "not altered"}, {"measurement": "total AMPK protein", "setting": "D2.mdx mice [2]", "result": "lower"}, {"measurement": "protein content of total raptor", "setting": "D2.mdx mice [2]; increased in D2.mdx vs WT", "result": "completely prevented the increases"}, {"measurement": "protein content of total tau", "setting": "D2.mdx mice [2]; increased in D2.mdx vs WT", "result": "completely prevented the increases"}]}
